Molecules are shown by their SMILES.

Results on five molecules are retold here after article PMC5061366, “Metagenomic Analysis of the Sponge Discodermia Reveals the Production of the Cyanobacterial Natural Product Kasumigamide by ‘Entotheonella’” (PLoS ONE, 2016).

Conditions in all cases: 1 mM substrate, 1 uM protein, 0.5 mM ATP, 10 mM MgCl2, 32 mM hydroxylamine, 1 mM DTT, pH 7.5, room temperature, 10 min
The target in one experiment is T1, MakasC-A2 (Microcystis aeruginosa, UniProt A0A1L7NR40).
T1 construct: C-A2-PCP tridomain of MakasC (MakasC-CA2P); N-terminal His6 (pCold II), E. coli BLR(DE3)
The experiment can be described thus: malachite green phosphate assay of adenylation (hydroxylamine, pyrophosphatase). Type of experiment: biochemical.

The next experiment has as its target MakasC-A1 (Microcystis aeruginosa, UniProt A0A1L7NR40).
Another experiment deals with T2, MakasB-A2 (Microcystis aeruginosa, UniProt A0A1L7NR43).
T2 construct: single adenylation domain A2 of MakasB; N-terminal His6-MBP fusion (NhisMBP-pET28b(+)), E. coli BLR(DE3)
Put plainly: malachite green phosphate assay of adenylation (hydroxylamine, pyrophosphatase). Type of experiment: biochemical.

The target in another experiment is T3, MakasA-A1 (Microcystis aeruginosa, UniProt A0A1L7NR41).
T3 construct: single adenylation domain A1 of MakasA; N-terminal His6 (pCold II), E. coli BLR(DE3)
T3 sequence (A0A1L7NR41 1-560 limits assumed): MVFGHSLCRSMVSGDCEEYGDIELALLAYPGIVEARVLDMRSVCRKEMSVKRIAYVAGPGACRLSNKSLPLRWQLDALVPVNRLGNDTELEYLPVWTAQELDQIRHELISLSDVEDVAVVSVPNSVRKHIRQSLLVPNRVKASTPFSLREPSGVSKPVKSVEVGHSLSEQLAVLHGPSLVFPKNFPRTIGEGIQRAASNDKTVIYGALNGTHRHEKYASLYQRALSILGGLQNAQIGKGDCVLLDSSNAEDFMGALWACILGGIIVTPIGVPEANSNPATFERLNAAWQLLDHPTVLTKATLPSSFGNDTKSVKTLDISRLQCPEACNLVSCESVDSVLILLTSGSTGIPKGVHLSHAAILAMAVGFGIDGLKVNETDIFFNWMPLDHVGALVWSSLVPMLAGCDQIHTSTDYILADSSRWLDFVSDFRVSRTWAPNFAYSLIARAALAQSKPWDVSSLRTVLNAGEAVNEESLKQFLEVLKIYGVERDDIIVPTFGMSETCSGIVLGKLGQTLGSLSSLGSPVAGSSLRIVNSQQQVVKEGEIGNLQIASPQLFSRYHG
Described as above. Type of experiment: biochemical.

The target in a further experiment is T4, MakasB-A1 (Microcystis aeruginosa, UniProt A0A1L7NR43).
T4 construct: C-A1-PCP tridomain of MakasB (MakasB-CA1P); N-terminal His6 (pCold II), E. coli BLR(DE3)
Described as above. It counts as biochemical.

With `NC(C(=O)O)C(O)c1ccccc1` (racemic) [DL-threo-3-phenylserine], on MakasC-A2, the relative adenylation activity result is reported as “MakasC-A2 showed higher selectivity to DL-threo-3-phenylserine (DL-threo-PS) than L-Phe”. Consider `N=C(N)NCCC[C@H](N)C(=O)O` [L-Arg], for which the relative adenylation activity result on MakasC-A1 is “exhibited catalytic activities selective for PP, β-Ala, L-Trp, and L-Arg, respectively”.

With `N[C@@H](Cc1c[nH]c2ccccc12)C(=O)O` [L-Trp], on MakasB-A2, the relative adenylation activity result is “exhibited catalytic activities selective for PP, β-Ala, L-Trp, and L-Arg, respectively”. On to `O=C(O)C(=O)Cc1ccccc1` [phenyl pyruvic acid], for which, at MakasA-A1, the relative adenylation activity entry is “exhibited catalytic activities selective for PP, β-Ala, L-Trp, and L-Arg, respectively”. As to `NCCC(=O)O` [β-Ala], the relative adenylation activity entry on MakasB-A1 is “exhibited catalytic activities selective for PP, β-Ala, L-Trp, and L-Arg, respectively”.
